Results reported in US7825231B2 (priority 2005, dated 2010).
“Also recorded” adds a separate entry of the source.

Assays:
Type in all cases: in vivo, rat
[1] = system: male Sprague-Dawley rats; test: CFA model of inflammatory pain: mechanical allodynia (von Frey hairs); conditions: three days after CFA injury
Experimental: (§1) Mechanical allodynia induced by SNL was determined by assessing the response of paw withdrawal to von Frey hairs of graded tensile strength as described previously with a tactile stimulus producing a 50% likelihood of withdrawal determined using the up-down method(53, 71, 72). Thermal hyperalgesia was determined using a Hargreaves apparatus recording the time to withdrawal from a radiant thermal stimulus positioned directly under the hind paw(73). Parametric statistics, using the general linear model for repeated measures were used to identify significant effects of treatment condition on the behavioral measure of neuropathic pain. The results were examined for a main effect of treatment group. All statistical analyses were performed using the software package, SPSS 13.0 for Windows (SPSS Inc., Chicago, Ill.).
(§2) Inflammatory injury was induced by injection of 150 μL CFA in the left-hind paw of male Sprague-Dawley rats.
Mechanical allodynia was tested using von Frey hair stimulation as described in Example 2. […] The antiallodynic effect of vEM2 was reversed by intrathecal (FIG. 5B) or intraperitoneal (FIG. 5C) administration of Nal-M.

[2] = system: male Sprague-Dawley rats; test: CFA model of inflammatory pain: thermal hyperalgesia (Hargreaves apparatus); conditions: three days after CFA injury
Experimental: as §1, §2
Thermal hyperalgesia was tested using a Hargreaves apparatus as in Example 2.

[3] = system: male Sprague-Dawley rats; test: CFA model of inflammatory pain: weight bearing (incapacitance analgesia meter); conditions: three days after CFA injury
Experimental: as §2
Weight-bearing ability in the CFA model was measured using an incapacitance analgesia meter. […] The effect of vEM2 was reversed by intrathecal (FIG. 7B) or intraperitoneal (FIG. 7C) administration of Nal-M.

[4] = system: rats with SNL; test: Spinal nerve ligation model of neuropathic pain: mechanical allodynia (von Frey hairs); conditions: intrathecal
Excerpt: (§3) The spinal nerve ligation model was utilized to produce mechanical allodynia and thermal hyperalgesia, hallmarks of neuropathic pain(41).
(§4) Male Sprague-Dawley rats weighing 225 to 250 g underwent selective L5 SNL with the approval of the University Committee on Use and Care of Animals(53). Under isoflurane anesthesia, an incision was made in the atlanto-occipital membrane, a polyethylene (PE-10) catheter, filled with 0.9% saline, was advanced 8.5 cm caudally to position its tip at the level of the lumbar enlargement. The rostral tip of the catheter was passed subcutaneously, externalized on top of the skull, and sealed with a stainless-steel plug. One week after implantation of the intrathecal catheter, L5 spinal nerve ligation (SNL) was performed. […]
(§5) Mechanical allodynia induced by SNL was determined by assessing the response of paw withdrawal to von Frey hairs of graded tensile strength as described previously with a tactile stimulus producing a 50% likelihood of withdrawal determined using the up-down method(53, 71, 72). Thermal hyperalgesia was determined using a Hargreaves apparatus recording the time to withdrawal from a radiant thermal stimulus positioned directly under the hind paw(73). […]

[5] = system: rats with SNL; test: Spinal nerve ligation model of neuropathic pain: thermal hyperalgesia (Hargreaves apparatus); conditions: intrathecal
Excerpt: as §3, §4, §5

[6] = 10 days after vEM2 in rats with SNL

Compound | effect on the antiallodynic effect of vEM2 (mechanical threshold) ([1]; intraperitoneal) | effect on the antiallodynic effect of vEM2 (mechanical threshold) ([1]; intrathecal) | effect on the anti-hyperalgesic effect of vEM2 (thermal latency) ([2]; intraperitoneal) | effect on the anti-hyperalgesic effect of vEM2 (thermal latency) ([2]; intrathecal) | effect on the effect of vEM2 (weight bearing differential) ([3]; intraperitoneal) | effect on the effect of vEM2 (weight bearing differential) ([3]; intrathecal) | effect on the antiallodynic effect produced by vEM2 [4, 6] | effect on mechanical threshold, given alone ([4]; normal animals, data not shown) | effect on the antihyperalgesic effect produced by vEM2 [5, 6] | effect on thermal latency, given alone ([5]; normal animals, data not shown)
C=CC[N+]1(C)CC[C@]23c4c5ccc(O)c4O[C@H]2C(=O)CC[C@@]3(O)[C@H]1C5 (stereo partly shown) [Nal-M, naloxone-methiodide] | reversed | reversed | reversed | not significantly affected; also recorded: did not significantly counteract | reversed | reversed |  |  |  | 
CTOP |  |  |  |  |  |  | reversed | did not affect | reversed | did not affect
